{"source": "patent US20240148714A1", "about": "“Triple Negative Breast Cancer Treatment Method” (Exelixis, Inc., priority 2016, published 2024)", "key": {"plasma biomarkers": {"test_system": "plasma biomarkers", "assay": "Circulating biomarker assays: plasma proteins (multiplex arrays, ELISA)", "type": "in vivo, human", "parameters": "plasma VEGF R2, Median / plasma bFGF, Median / plasma sPLT-3, Median / plasma VEGF, Median / plasma VEGF-D, Median / plasma sMET, Median: unit not given beside the values", "excerpt": "Circulating Biomarker Assays: Potential biomarkers of cabozantinib activity were identified by measuring plasma proteins at baseline, on day 8 of therapy, on day 1 of each cycle of therapy, and, if available, at the time of progression. Eight milliliters of blood was collected in purple top (plasma EDTA) vacutainers and shipped on wet ice to a Clinical Laboratory Improvement Amendments-certified core in the Steele Laboratories (Massachusetts General Hospital), where whole blood was separated by centrifugation into cellular fraction and plasma. The fraction of stem/progenitor cell, lymphocyte, and myeloid populations of total circulating mononuclear cells were counted by flow cytometry using a LSR-II cytometer and FACSDiva software in fresh blood samples using the following markers: CD3, CD4, CD8, CD14, CD25, CD34, CD45, CD56, CD127, and CD133 (Becton Dickinson, Franklin Lakes, NJ, www.bd.com). Plasma was prepared in the standard fashion and stored at −78° C. until collection and analysis of all samples. The biomarkers measured included VEGF, placental growth factor (PlGF), VEGF-C, VEGF-D, soluble VEGFR1 (sVEGFR1), basic fibroblast growth factor (bFGF), and sTie-2 (using a 7-plex Growth Factor array) and granulocyte-macrophage colony stimulating factor (GM-CSF), interferon gamma (IFN-g), tumor necrosis factor alpha (TNF-a), and interleukin-1beta (IL-1b), IL-2, IL-6, IL-8, IL-10, and IL-12 heterodimer p70 (using a 9-plex Inflammatory Factor array; both Meso Scale Discovery, Gaithersburg, MD, www.mesoscale.com); and HGF, sMET, carbonic anhydrase IX (CAIX), stromal cell-derived factor 1 a (SDF1a), and sVEGFR2 by single analyte enzyme-linked immunosorbent assay (R&D Systems, Minneapolis, MN, www.rndsystems.com). Descriptive statistics were used to summarize biomarker values at protocol-specific time points. […] The Wilcoxon signed rank test assessed biomarker change from day 1 to 8. Mixed effects linear models assessed the change in biomarker values at days 1, 8, 22, 43, and 64; values beyond day 64 were not analyzed because of the small number of patients still on protocol. In the mixed effects linear model, the fixed effects were times of assessment, and patients were entered as a random effect. Logarithmic transformation was used to achieve normality, when applicable. Baseline biomarkers were stratified by using the median values for the entire cohort. The log-rank test compared PFS among patients with low or high baseline sMET. All tests were conducted with two-sided […]. The Benjamini-Hochberg procedure was used to adjust p values to control the false discovery rate from evaluating multiple circulating biomarkers."}, "[1]": {"assay": "Participant-reported pain questionnaire and analgesic use", "type": "in vivo, human", "protocol": "Study Design and Treatment: As indicated, this was a single-arm, two-stage phase II study assessing the efficacy of cabozantinib monotherapy in patients with mTNBC. Treatment consisted of oral dosing of cabozantinib at 60 mg daily over a 21-day cycle. Patients underwent radiographic restaging at 6 weeks and every 9 weeks thereafter. Patients with complete or partial RECIST responses continued to receive study treatment, whereas those with progressive disease were taken off study. Dose reductions for toxicity occurred if patients experienced grade 3 or 4 neutropenia or thrombocytopenia, or nonhematologic adverse events. From the starting dose of 60 mg daily, doses were reduced as needed to 40 and 20 mg daily. For the purposes of determining the effect of cabozantinib treatment on pain and analgesic medication use, pain was assessed by a participant-reported questionnaire, and daily analgesic medication usage was recorded. These were completed at baseline and during week 3, 6, and every 6 weeks thereafter until the date of the participant's last follow-up visit."}, "[2]": {"details": "baseline to day 22, maintained at day 64"}}, "note": "“Also recorded” adds a separate entry of the source."}
{"smiles": "COc1cc2nccc(Oc3ccc(NC(=O)C4(C(=O)Nc5ccc(F)cc5)CC4)cc3)c2cc1OC", "note": "[cabozantinib]", "values": [{"measurement": "plasma VEGF R2, Median", "setting": "plasma biomarkers; Day 1 (baseline)", "result": 8.872}, {"measurement": "plasma VEGF, Median", "setting": "plasma biomarkers; Day 1 (baseline)", "result": 98}, {"measurement": "plasma VEGF-D, Median", "setting": "plasma biomarkers; Day 1 (baseline)", "result": 1.062}, {"measurement": "plasma bFGF, Median", "setting": "plasma biomarkers; Day 1 (baseline)", "result": 39}, {"measurement": "plasma sMET, Median", "setting": "plasma biomarkers; Day 1 (baseline)", "result": 795}, {"measurement": "plasma sPLT-3, Median", "setting": "plasma biomarkers; Day 1 (baseline)", "result": 1.24}, {"measurement": "plasma VEGF R2, Median", "setting": "plasma biomarkers; Day 8", "result": 8.475}, {"measurement": "plasma VEGF, Median", "setting": "plasma biomarkers; Day 8", "result": 188}, {"measurement": "plasma VEGF-D, Median", "setting": "plasma biomarkers; Day 8", "result": 1.419}, {"measurement": "plasma bFGF, Median", "setting": "plasma biomarkers; Day 8", "result": 41}, {"measurement": "plasma sMET, Median", "setting": "plasma biomarkers; Day 8", "result": 890}, {"measurement": "plasma sPLT-3, Median", "setting": "plasma biomarkers; Day 8", "result": 50}, {"measurement": "plasma VEGF R2, Median", "setting": "plasma biomarkers; Day 22", "result": 6.726}, {"measurement": "plasma VEGF, Median", "setting": "plasma biomarkers; Day 22", "result": 206}, {"measurement": "plasma VEGF-D, Median", "setting": "plasma biomarkers; Day 22", "result": 1.582}, {"measurement": "plasma bFGF, Median", "setting": "plasma biomarkers; Day 22", "result": 28}, {"measurement": "plasma sMET, Median", "setting": "plasma biomarkers; Day 22", "result": 902}, {"measurement": "plasma sPLT-3, Median", "setting": "plasma biomarkers; Day 22", "result": 90}, {"measurement": "plasma VEGF R2, Median", "setting": "plasma biomarkers; Day 43", "result": 5.812}, {"measurement": "plasma VEGF, Median", "setting": "plasma biomarkers; Day 43", "result": 206}, {"measurement": "plasma VEGF-D, Median", "setting": "plasma biomarkers; Day 43", "result": 1.437}, {"measurement": "plasma bFGF, Median", "setting": "plasma biomarkers; Day 43", "result": 33}, {"measurement": "plasma sMET, Median", "setting": "plasma biomarkers; Day 43", "result": 903}, {"measurement": "plasma sPLT-3, Median", "setting": "plasma biomarkers; Day 43", "result": 124}, {"measurement": "plasma VEGF R2, Median", "setting": "plasma biomarkers; Day 64", "result": 5.968}, {"measurement": "plasma VEGF-D, Median", "setting": "plasma biomarkers; Day 64", "result": 1.429}, {"measurement": "plasma bFGF, Median", "setting": "plasma biomarkers; Day 64", "result": 21}, {"measurement": "plasma sMET, Median", "setting": "plasma biomarkers; Day 64", "result": 923}, {"measurement": "plasma sPLT-3, Median", "setting": "plasma biomarkers; Day 64", "result": 87}, {"measurement": "change in plasma PIGF", "setting": "plasma biomarkers; [2]", "result": "increases"}, {"measurement": "change in plasma VEGF", "setting": "plasma biomarkers; [2]", "result": "increases"}, {"measurement": "change in plasma VEGF-D", "setting": "plasma biomarkers; [2]", "result": "increases"}, {"measurement": "change in plasma HGF", "setting": "plasma biomarkers; day 8", "result": "initially decreased"}, {"measurement": "change in plasma SDF1a", "setting": "plasma biomarkers; day 22", "result": "transiently increased; also recorded: increases"}, {"measurement": "change in plasma HGF", "setting": "plasma biomarkers; day 64", "result": "increased"}, {"measurement": "change in plasma CAIX", "setting": "plasma biomarkers; days 43 and 64", "result": "increases"}, {"measurement": "change in plasma sVEGFR2", "setting": "plasma biomarkers; days 43 and 64", "result": "significantly decreased"}, {"measurement": "change in plasma bFGF over time", "setting": "plasma biomarkers; in vivo", "result": "did not significantly change"}, {"measurement": "change in plasma sMET over time", "setting": "plasma biomarkers; in vivo", "result": "did not significantly change"}, {"measurement": "change in plasma sTIE-2 over time", "setting": "plasma biomarkers; in vivo", "result": "did not significantly change"}, {"measurement": "change in plasma sVEGFR1 over time", "setting": "plasma biomarkers; in vivo", "result": "did not significantly change"}, {"measurement": "patients reporting a decrease in pain since baseline", "setting": "[1]; of 21 patients with pain at entry who completed a survey", "result": 52, "unit": "%"}, {"measurement": "patients with decreased pain who discontinued pain medications", "setting": "[1]; of the eleven with decreased pain", "result": 10, "unit": "patients"}]}
